Our source for the GI50 and TGI values is PubChem BioAssay (NCI).

Molecules are shown by their SMILES. “And” between values parts separate entries of the source, which are not always exact repeats. Equal entries are not always repeated.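 These data come from cells grown in 96-well plates and exposed to compound for 48 hours at five concentrations. GI50: concentration for 50% inhibition of growth. TGI: total growth inhibition.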

The subject of the experiment is MDA-MB-468 breast. Description: NCI-60 cell line screen, 48 h.
In the case of `CCCNC(=O)c1ccc(Cl)cc1Cl`, the GI50 is more than 100000 nM and the TGI was more than 100000 nM. Consider `COc1ccc2c(c1)CCCN2S(=O)(=O)c1ccccc1[N+](=O)[O-]`, for which the GI50 was 25700 nM and the TGI was determined as 95100 nM. Consider `Nc1nc(N)c2c(n1)NC(c1ccccc1)C1CCc3ccccc3C1=N2` (stereo not given), for which the GI50 is 473 nM and the TGI turned out to be 3250 nM. Regarding `Cc1cc(C(=O)NC(CCC(=O)O)C(=O)O)sc1CCC1CNc2nc(N)[nH]c(=O)c2C1` (stereo not given), the GI50 was 58.4 nM and 83.8 nM; the TGI was more than 100000 nM. With `CCOC(=O)c1c(C)nc2c(c1N)CC(=O)N2CCc1ccccc1`, the GI50 is 2390 nM and the TGI stood at 30000 nM. For `C[n+]1c(-c2ccc(/C=N/NC(=O)c3ccc(C(=O)N/N=C/c4ccc(-c5cn6ccccc6[n+]5C)cc4)cc3)cc2)cn2ccccc21` the same measures were 114000 nM and 326000 nM. For the molecule `COc1ccc2c(Cl)cc(NC(=O)Nc3c(C)cccc3C)nc2c1`, the GI50 is 84800 nM and the TGI is more than 100000 nM. On to `Cc1cc(C(=O)O)c(C)n1-c1cccc(C(=O)O)c1`, for which the GI50 is more than 100000 nM and the TGI is more than 100000 nM. Take `Cc1cc2nc3cc(C)c(N)cc3[n+](-c3ccccc3)c2cc1N`: the GI50 was 79.8 nM and the TGI is 1120 nM.

On to `COC(=O)/C=C1/SC(N2N=C(c3cccs3)CC2c2ccc(F)cc2)=NC1=O` (stereo not given), for which the GI50 is 1940 nM and the TGI stood at 4370 nM.

As for `Cc1ccc(C(SCC(N)C(=O)O)(c2ccccc2)c2ccccc2)cc1` (stereo not given), the GI50 is 45.3 nM and the TGI was more than 49500 nM.

In the case of `NCCOc1ccccc1/C=C1\c2ccccc2-c2ccc([N+](=O)[O-])cc21`, the GI50 is 1540 nM and the TGI came out at 3110 nM. The like results for `COc1cc(-c2cc(/C=C/C(=O)c3ccc(Cl)c(Cl)c3)[nH]n2)cc(OC)c1OC` were, in that order, 1980 nM and 7220 nM. For `CN(c1ccc(Br)cc1)S(=O)(=O)c1ccc(-c2cnc(C3CC3)o2)cc1`, the GI50 is 41.4 nM. Take `COc1cc(N2CCN(C(C)C)CC2)ccc1Nc1nc(Nc2cccc(F)c2C(=O)O)c2cc[nH]c2n1`: the GI50 was more than 25000 nM and the TGI was more than 25000 nM. As for `c1cncc(C2Nc3cccc4cccc(c34)N2)c1`, the GI50 is 2930 nM and the TGI was 16700 nM. For `COc1cc2ncnc(Nc3ccc4c(cnn4Cc4ccccc4)c3)c2cc1OC`, the GI50 was 59.6 nM and the TGI came out at 584 nM.

Take `Cc1cc(N2CCCC2)nc(NCc2cc(Nc3ccnc4cc(Cl)ccc34)ccc2F)n1`: the GI50 is 1140 nM and the TGI was found to be 2610 nM.

With `C[C@]12CC[C@H]3[C@@H](C[C@@H]4SC(Nc5ccccc5)=N[C@@]45CC(O)CC[C@]35C)[C@@H]1CCC2O` (stereo not given in full), the GI50 is 1720 nM and the TGI is 3380 nM.

For the molecule `N=C(N)c1ccc(-c2ccc(-c3cccs3)s2)s1`, the GI50 was 217 nM and the TGI came to 651 nM. The like results for `C[C@]1(Cn2ccnn2)C(C(=O)O)N2C(=O)CC2S1(=O)=O` (stereo not given in full) were, in that order, more than 100000 nM and more than 100000 nM.

In the case of `Cc1[nH]c(-c2nc3ccccc3[nH]2)c(C)c1C(=O)NC(C)C1CCCCC1` (stereo not given), the GI50 is 6820 nM and the TGI was 28300 nM. For `Cc1nc(N)sc1-c1csc(Nc2ccc(C(F)(F)F)cc2)n1` the same measures were 2250 nM and 8770 nM.

As for `CCN(CC)CCN(Cc1ccc(F)cc1)c1ccc(CO)c(Cl)c1`, the GI50 is 430 nM and the TGI turned out to be 1750 nM. With `Cc1[nH]nc2c1N=C(c1ccccc1F)c1cc(C(N)=O)ccc1N2`, the GI50 is 1160 nM and the TGI stood at 8000 nM.

For `N#Cc1c(N)nc(N)nc1N[C@H](c1nc2c(F)ccc(Cl)c2c(=O)n1-c1cccnc1)C1CC1`, the GI50 was 2040 nM and the TGI was determined as 13900 nM. The like results for `CCCCNC(=O)Oc1ccc(/C(=C(/C)Cc2ccc(OC)cc2)c2ccc(OCCN3CCCC3)cc2)cc1` were, in that order, 1720 nM and 3430 nM.

As to `Cn1c2ccccc2c2c3[nH][nH]c(=O)c3c3c4ccccc4[nH]c3c21`, the GI50 was 2280 nM and the TGI turned out to be 9190 nM.

Consider `CN1CCN(c2nc(NCCCNc3ccnc4cc(Cl)ccc34)c3ccccc3n2)CC1`, for which the GI50 was 2140 nM and the TGI was 6140 nM. On to `COc1cc(-c2n/c(=C\c3c(O)[nH]c4cc(Cl)ccc34)cc3c2=Nc2ccccc2-3)cc(OC)c1OC`, for which the GI50 is 3340 nM and the TGI is 20900 nM. The like results for `COc1cc(C2C3=C(COC3=O)Nc3c2ccc2c3CCCC2)cc2c1OCO2` (stereo not given) were, in that order, 28.7 nM and 98.6 nM. `O=C1C(=O)c2ccccc2C(O)=C1CCCc1ccc(C2CCCCCC2)cc1`: the GI50 is 397 nM and the TGI came to 17200 nM.

As for `CCC(=O)Nc1ccccc1C#C/C=C\C#Cc1ccccc1C(F)(F)F`, the GI50 is 1980 nM and the TGI was more than 14000 nM. For `OCCNCCCOc1ccc2ncnc(Nc3ccc(Oc4cccc(C(F)(F)F)c4)c(Cl)c3)c2c1` the same measures were 626 nM and 2210 nM. For `CCCCC(=O)N/N=C/c1c(O)ccc2ccccc12` the same measures were 999 nM and 11700 nM. For `COc1ccc(Cn2cc3c(c2-c2cc(OC)c(OC)c(OC)c2)CCc2c(CN4CCOCC4)noc2-3)cc1` the same measures were 453 nM and more than 100000 nM. In the case of `Cc1ccc(C2=Nc3c(N)ncnc3NC(c3ccc4c(c3)OCO4)C2)cc1` (stereo not given), the GI50 was 3680 nM and the TGI is more than 100000 nM.

Turning to `C#C[C@]1(O)CC[C@H]2[C@@H]3CC=C4c5sc(Nc6cc(OC)ccc6OC)nc5CC[C@]4(C)[C@H]3CC[C@@]21C`, the GI50 was 1530 nM and the TGI was determined as 3960 nM. As for `CCCCc1n(Cc2ccc3ccccc3c2)cc[n+]1Cc1ccc2ccccc2c1`, the GI50 is 297 nM and the TGI was determined as 1130 nM. The like results for `COCCN1CCN(Cc2ccc(-c3n[nH]c4c3C(=O)c3c(NC(=O)NN5CCOCC5)cccc3-4)cc2)CC1` were, in that order, 19.8 nM and 66.9 nM. With `CC(C)n1nc(-c2ccc3oc(N)nc3c2)c2c(N)ncnc21`, the GI50 is < 10 nM and 10.1 nM; the TGI was 64.9 nM and 63.3 nM. With `CN(C)CC(C(=O)Cc1ccccc1)c1ccccc1` (stereo not given), the GI50 is 494 nM and the TGI amounted to 2050 nM. For `O=C1Nc2ccccc2/C1=C\c1nc(C2CCN(S(=O)(=O)c3ccc(F)cc3)CC2)n2ccccc12` the same measures were 3920 nM and more than 100000 nM. For `COc1ccc(/C=C2\CN(Cc3cn(CCNc4ccnc5cc(Cl)ccc45)nn3)C/C(=C\c3ccc(OC)c(OC)c3)C2=O)cc1OC` the same measures were 1510 nM and 4410 nM. Regarding `CCc1cc2ncc(CN3CCN(c4ccc(C(=O)NC)nc4)CC3)cc2[nH]c1=O`, the GI50 is 13300 nM and the TGI is more than 100000 nM.

As for `CN1CCN(Cc2ccc(NC(=O)c3cncc(C#Cc4cncc5nccnc45)c3)cc2C(F)(F)F)CC1`, the GI50 is 7060 nM and the TGI was 15900 nM. The like results for `O=[n+]1c2ccccc2n([O-])c2cc(Cl)ccc21` were, in that order, 1240 nM and 4960 nM. For `CCCCNC(=O)c1cc(NCc2cc(O)ccc2O)ccc1O` the same measures were 12300 nM and 33900 nM.
